Reference: ChEMBL document CHEMBL5356932, “Research and development of N,N'-diarylureas as anti-tumor agents” (RSC Med Chem, 2023)

Key:
[1] = tested on: MCF7; test: Antiproliferative activity against human MCF7 cells assessed as cell growth inhibition; format: functional, cell-based
[2] = tested on: MDA-MB-231; test: Antiproliferative activity against human MDA-MB-231 cells assessed as cell growth inhibition; format: functional, cell-based
[3] = target: Angiopoietin-1 receptor (Homo sapiens, UniProt Q02763); test: Inhibition of TIE2 (unknown origin)
[4] = target: T1, Vascular endothelial growth factor receptor 2 (Homo sapiens, UniProt P35968); test: Inhibition of human VEGFR
[5] = Cytotoxicity against HUVEC cells assessed as reduction in cell viability and measured after 24 hrs by MTT assay; format: toxicity, cell-based; settings: human
[6] = tested on: MCF7; test: Cytotoxicity against human MCF7 cells assessed as reduction in cell viability incubated for 24 hrs by MTT assay; format: functional, cell-based; settings: MCF7, 24 h
[7] = tested on: HepG2; test: Cytotoxicity against human HepG2 cells assessed as reduction in cell viability incubated for 24 hrs by MTT assay; format: functional, cell-based; settings: HepG2, 24 h
[8] = target: T1, Vascular endothelial growth factor receptor 2; test: Inhibition of VEGFR2 in HUVEC cells; format: cell-based
[9] = Inhibition of angiogenesis in HUVEC cells assessed as reduction in capillary tube formation after 6 hrs by phase contrast microscopy; format: functional, cell-based; settings: Homo sapiens
[10] = tested on: HUVEC; test: Anti-angiogenesis activity in HUVEC cells; format: functional, cell-based; settings: Homo sapiens
[11] = tested on: EA.hy 926; test: Antiproliferative activity against human EA.hy 926 cells assessed as reduction in cell viability incubated for 48 hrs by MTT assay; format: functional, cell-based; settings: EA.hy 926, 48 h
[12] = tested on: HUVEC; test: Antiproliferative activity against HUVEC cells assessed as reduction in cell viability measured after 48 hrs by MTT assay; format: functional, cell-based; settings: Homo sapiens
[13] = tested on: A549; test: Antiproliferative activity against human A549 cells assessed as reduction in cell viability measured after 48 hrs by MTT assay; format: functional, cell-based; settings: A549, 48 h
[14] = tested on: NCI-H1975; test: Antiproliferative activity against human NCI-H1975 cells assessed as reduction in cell viability measured after 48 hrs by MTT assay; format: functional, cell-based; settings: NCI-H1975, 48 h

T1 sequence (P35968 whole entry): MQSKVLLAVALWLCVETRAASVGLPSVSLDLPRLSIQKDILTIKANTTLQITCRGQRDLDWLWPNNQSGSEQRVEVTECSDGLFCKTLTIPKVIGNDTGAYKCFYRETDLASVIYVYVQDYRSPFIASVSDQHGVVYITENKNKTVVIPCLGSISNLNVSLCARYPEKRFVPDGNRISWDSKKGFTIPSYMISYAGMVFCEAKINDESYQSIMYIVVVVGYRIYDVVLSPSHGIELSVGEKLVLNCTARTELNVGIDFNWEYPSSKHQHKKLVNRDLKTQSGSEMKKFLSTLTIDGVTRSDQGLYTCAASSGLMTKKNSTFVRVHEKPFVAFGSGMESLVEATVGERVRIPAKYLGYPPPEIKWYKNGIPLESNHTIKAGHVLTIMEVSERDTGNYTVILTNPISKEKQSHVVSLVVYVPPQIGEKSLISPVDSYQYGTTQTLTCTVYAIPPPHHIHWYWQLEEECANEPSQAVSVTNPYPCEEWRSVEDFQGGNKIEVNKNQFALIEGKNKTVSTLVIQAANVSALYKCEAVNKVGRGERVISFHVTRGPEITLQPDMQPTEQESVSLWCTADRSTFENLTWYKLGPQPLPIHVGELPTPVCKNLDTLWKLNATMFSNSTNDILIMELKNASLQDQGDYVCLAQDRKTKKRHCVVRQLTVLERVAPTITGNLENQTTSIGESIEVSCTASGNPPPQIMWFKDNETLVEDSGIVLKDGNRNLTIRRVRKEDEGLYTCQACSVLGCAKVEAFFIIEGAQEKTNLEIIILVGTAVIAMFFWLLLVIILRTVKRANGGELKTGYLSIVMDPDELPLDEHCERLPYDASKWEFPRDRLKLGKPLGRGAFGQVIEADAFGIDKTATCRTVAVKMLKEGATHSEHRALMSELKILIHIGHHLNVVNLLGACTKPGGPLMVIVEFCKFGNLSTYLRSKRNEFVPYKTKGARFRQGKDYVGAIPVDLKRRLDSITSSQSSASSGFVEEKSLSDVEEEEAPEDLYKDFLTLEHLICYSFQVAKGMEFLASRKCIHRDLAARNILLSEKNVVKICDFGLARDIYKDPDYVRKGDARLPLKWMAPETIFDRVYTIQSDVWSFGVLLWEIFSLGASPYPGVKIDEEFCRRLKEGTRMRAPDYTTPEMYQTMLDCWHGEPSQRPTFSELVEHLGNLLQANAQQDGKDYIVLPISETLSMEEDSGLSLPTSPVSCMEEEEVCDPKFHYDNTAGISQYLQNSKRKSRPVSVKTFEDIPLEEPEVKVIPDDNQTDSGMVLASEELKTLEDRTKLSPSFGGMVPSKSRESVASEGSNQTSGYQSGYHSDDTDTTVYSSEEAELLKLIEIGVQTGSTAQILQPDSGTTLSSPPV
Sequence of Angiopoietin-1 receptor (Q02763 whole entry): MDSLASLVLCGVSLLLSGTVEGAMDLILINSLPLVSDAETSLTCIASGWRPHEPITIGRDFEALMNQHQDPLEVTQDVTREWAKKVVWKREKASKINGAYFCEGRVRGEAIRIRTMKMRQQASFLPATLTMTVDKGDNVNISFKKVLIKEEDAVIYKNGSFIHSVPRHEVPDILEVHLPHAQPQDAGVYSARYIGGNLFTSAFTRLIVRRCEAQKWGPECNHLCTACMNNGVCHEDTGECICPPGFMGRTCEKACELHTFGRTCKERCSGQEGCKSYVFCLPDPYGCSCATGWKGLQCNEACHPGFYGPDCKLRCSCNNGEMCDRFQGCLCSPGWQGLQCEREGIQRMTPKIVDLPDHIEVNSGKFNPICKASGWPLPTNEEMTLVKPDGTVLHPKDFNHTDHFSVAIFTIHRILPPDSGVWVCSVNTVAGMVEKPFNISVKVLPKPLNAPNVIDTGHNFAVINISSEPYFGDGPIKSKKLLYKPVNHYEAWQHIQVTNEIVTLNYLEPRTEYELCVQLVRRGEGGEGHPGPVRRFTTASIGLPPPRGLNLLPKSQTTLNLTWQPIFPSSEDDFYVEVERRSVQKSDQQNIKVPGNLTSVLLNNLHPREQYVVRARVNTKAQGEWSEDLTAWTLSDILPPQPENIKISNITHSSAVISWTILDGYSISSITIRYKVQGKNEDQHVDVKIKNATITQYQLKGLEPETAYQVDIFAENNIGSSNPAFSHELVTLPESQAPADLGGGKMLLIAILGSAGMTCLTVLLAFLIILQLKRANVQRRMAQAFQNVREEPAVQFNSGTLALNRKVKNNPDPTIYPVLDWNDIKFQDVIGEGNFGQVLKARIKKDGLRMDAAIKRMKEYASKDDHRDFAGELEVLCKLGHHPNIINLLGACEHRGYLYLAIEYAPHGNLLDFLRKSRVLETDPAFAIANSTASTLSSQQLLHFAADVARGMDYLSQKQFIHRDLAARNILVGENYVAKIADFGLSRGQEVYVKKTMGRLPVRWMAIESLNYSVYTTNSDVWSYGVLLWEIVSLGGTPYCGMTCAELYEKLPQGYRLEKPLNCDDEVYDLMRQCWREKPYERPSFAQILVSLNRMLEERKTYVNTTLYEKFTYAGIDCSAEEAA

Compound O=C(Nc1cccc(Sc2ccnc3ccsc23)c1)Nc1cccc(C(F)(F)F)c1 has an IC50 [1] of 1.2 µM and an IC50 [2] of 5 µM.

COC(=O)Nc1nc2cc(Oc3ccc(NC(=O)Nc4cc(F)ccc4C(F)(F)F)cc3)ccc2[nH]1 gave an IC50 [3] of 0.0069 µM and an IC50 [4] of 3.5 µM.

Compound Cc1nc(Nc2ccc(NC(=O)Nc3ccc(F)c(Cl)c3)cc2)c2nc(-c3ccc(OCCCN4CCN(C)CC4)cc3)oc2n1 has an IC50 at 24 h [5] of 12.4 µM.

CSc1cccc(NC(=O)Nc2ccc(Oc3ccc4[nH]c(=O)c(=O)[nH]c4c3)cc2C)c1 gave an IC50 [6] of 14 µM and an IC50 [7] of 17 µM.

In the case of Cc1nc(Nc2ccc(NC(=O)Nc3cccc(F)c3)cc2)c2nc(-c3ccccc3)sc2n1, the IC50 [8] is reported as 73.2 µM, the IC50 [9] is reported as 5.3 µM and the IC50 [10] is reported as 5.3 µM.

O=C(Nc1ccc(-c2cccc(NC(=O)C3CC3)n2)cc1)Nc1ccc(Cl)c(C(F)(F)F)c1 gave an IC50 [11] of 14.5 µM.

O=C(Nc1ccc(-c2cccc(NC(=O)C3CC3)n2)cc1)Nc1cccc(C(F)(F)F)c1 gave an IC50 [11] of 16.1 µM.

Compound O=C(Nc1ccc(OC(F)(F)F)cc1)Nc1ccc2nc(-c3ccccc3Cl)oc2c1 has an IC50 [12] of 8.46 µM, an IC50 [13] of 7.61 µM and an IC50 [14] of 1.4 µM.

For CNC(=O)c1cc(Oc2ccc(NC(=O)Nc3ccc(Cl)c(C(F)(F)F)c3)cc2)ccn1 [SORAFENIB], the IC50 [10] was 73.2 µM.
